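The compound was tested at five concentrations on cells cultured in 96-well plates, with a 48-hour exposure period. Abbreviation: GI50, concentration required for 50% inhibition of growth.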 The source made the active and inactive calls. Rule as the data show it: active = GI50 up to about 1.1 µM and inactive = higher.
Experiments:
Assay in all cases: NCI anticancer screen, dose series, 48 h
[1] = system: TK-10
[2] = system: HOP-62
[3] = system: BT-549
[4] = system: SK-MEL-28
[5] = system: HCT-15
[6] = system: Malme-3M
[7] = system: SF-539
[8] = system: HT-29
[9] = system: SK-OV-3
[10] = system: SNB-19
[11] = system: SK-MEL-2
[12] = system: LXFL 529
[13] = system: NCI-H522
[14] = system: NCI/ADR-RES
[15] = system: RXF 393
[16] = system: UACC-62
[17] = system: OVCAR-8
[18] = system: COLO 205
[19] = system: UO-31
[20] = system: HCT-116
[21] = system: DU-145
[22] = system: SNB-78
[23] = system: SR
[24] = system: HL-60
[25] = system: SW-620
[26] = system: SF-268
[27] = system: OVCAR-5
[28] = system: RXF 631
[29] = system: M14
[30] = system: MOLT-4
[31] = system: Hs-578T
[32] = system: DMS-114
[33] = system: DLD-1
[34] = system: XF498
[35] = system: MDA-N
[36] = system: K562
[37] = system: NCI-H226
[38] = system: OVCAR-4
[39] = system: CAKI-1
[40] = system: HOP-18
[41] = system: HOP-92
[42] = system: NCI-H23
[43] = system: LOX IMVI
[44] = system: SF-295
[45] = system: DMS-273
[46] = system: CCRF-CEM
[47] = system: NCI-H460
[48] = system: MDA-MB-435
[49] = system: MCF7
[50] = system: PC-3
[51] = system: 786-0
[52] = system: EKVX
[53] = system: UACC-257
[54] = system: HCC 2998
[55] = system: U-251
[56] = system: MDA-MB-231
[57] = system: ACHN
[58] = system: SNB-75
[59] = system: OVCAR-3
[60] = system: A498
[61] = system: T47D
[62] = system: M19-MEL
[63] = system: RPMI-8226
[64] = system: A549
[65] = system: KM12
[66] = system: IGROV-1
[67] = system: SK-MEL-5
[68] = system: KM-20L2
[69] = system: SN12C

## COc1ccccc1/C=C1\CCC(CN2CCOCC2)C1=O (stereo unspecified)
[1]
  GI50: 3.49 µM (inactive)
[2]
  GI50: 25.5 µM (inactive)
[3]
  GI50: 12.6 µM (inactive)
[4]
  GI50: 15.5 µM (inactive)
[5]
  GI50: 4.24 µM
[6]
  GI50: 10.2 µM (inactive)
[7]
  GI50: 15.2 µM (inactive)
[8]
  GI50: 11 µM (inactive)
[9]
  GI50: > 43.7 µM (inactive)
[10]
  GI50: 9.55 µM (inactive)
[11]
  GI50: 15.7 µM (inactive)
[12]
  GI50: 3.28 µM (inactive)
[13]
  GI50: 1.77 µM (inactive)
[14]
  GI50: 8.95 µM (inactive)
[15]
  GI50: 16.8 µM (inactive)
[16]
  GI50: 16.4 µM (inactive)
[17]
  GI50: 5.43 µM (inactive)
[18]
  GI50: 4.47 µM (inactive)
[19]
  GI50: 16.6 µM (inactive)
[20]
  GI50: 6.92 µM (inactive)
[21]
  GI50: 17.3 µM (inactive)
[22]
  GI50: 20 µM (inactive)
[23]
  GI50: 1.74 µM (inactive)
[24]
  GI50: 2.12 µM (inactive)
[25]
  GI50: 4.16 µM (inactive)
[26]
  GI50: 16 µM (inactive)
[27]
  GI50: 18.4 µM (inactive)
[28]
  GI50: 11.9 µM (inactive)
[29]
  GI50: 6.15 µM (inactive)
[30]
  GI50: 2.32 µM (inactive)
[31]
  GI50: 10.8 µM (inactive)
[32]
  GI50: 16 µM (inactive)
[33]
  GI50: 3.84 µM (inactive)
[34]
  GI50: 16.4 µM (inactive)
[35]
  GI50: 13.8 µM (inactive)
[36]
  GI50: 2.81 µM (inactive)
[37]
  GI50: 16.9 µM (inactive)
[38]
  GI50: 16.8 µM (inactive)
[39]
  GI50: 17.3 µM (inactive)
[40]
  GI50: 17.9 µM (inactive)
[41]
  GI50: 18.4 µM (inactive)
[42]
  GI50: 20.3 µM (inactive)
[43]
  GI50: 6.52 µM (inactive)
[44]
  GI50: 19.2 µM (inactive)
[45]
  GI50: 13.6 µM (inactive)
[46]
  GI50: 2.56 µM (inactive)
[47]
  GI50: 18.2 µM (inactive)
[48]
  GI50: 7.13 µM (inactive)
[49]
  GI50: 5.14 µM (inactive)
[50]
  GI50: 15.2 µM (inactive)
[51]
  GI50: 3.02 µM (inactive)
[52]
  GI50: 11.2 µM (inactive)
[53]
  GI50: 11.6 µM (inactive)
[54]
  GI50: 14.9 µM (inactive)
[55]
  GI50: 18.7 µM (inactive)
[56]
  GI50: 3.68 µM (inactive)
[57]
  GI50: 16.1 µM (inactive)
[58]
  GI50: 20.2 µM (inactive)
[59]
  GI50: 5.57 µM (inactive)
[60]
  GI50: 18.2 µM (inactive)
[61]
  GI50: 1.84 µM (inactive)
[62]
  GI50: 6.7 µM (inactive)
[63]
  GI50: 1.32 µM (inactive)
[64]
  GI50: 21.9 µM (inactive)
[65]
  GI50: 3.71 µM (inactive)
[66]
  GI50: 12.5 µM (inactive)
[67]
  GI50: 15 µM (inactive)
[68]
  GI50: 16.6 µM (inactive)
[69]
  GI50: 7.5 µM (inactive)

## COC(=O)C(C(=O)c1ccccc1)C(C(=O)C(=O)Nc1ccc(OC)cc1OC)C(=O)C(=O)c1ccc(C)cc1 (stereo unspecified)
[1]
  GI50: > 100 µM (inactive)
[2]
  GI50: > 100 µM (inactive)
[4]
  GI50: > 100 µM (inactive)
[5]
  GI50: > 100 µM
[6]
  GI50: > 100 µM (inactive)
[7]
  GI50: > 100 µM (inactive)
[8]
  GI50: > 100 µM (inactive)
[9]
  GI50: > 100 µM (inactive)
[10]
  GI50: > 100 µM (inactive)
[11]
  GI50: > 100 µM (inactive)
[12]
  GI50: > 100 µM (inactive)
[13]
  GI50: > 100 µM (inactive)
[15]
  GI50: > 100 µM (inactive)
[16]
  GI50: > 100 µM (inactive)
[17]
  GI50: > 100 µM (inactive)
[18]
  GI50: > 100 µM (inactive)
[19]
  GI50: > 100 µM (inactive)
[20]
  GI50: > 100 µM (inactive)
[22]
  GI50: > 100 µM (inactive)
[23]
  GI50: > 100 µM (inactive)
[24]
  GI50: > 100 µM (inactive)
[25]
  GI50: > 100 µM (inactive)
[26]
  GI50: > 100 µM (inactive)
[27]
  GI50: > 100 µM (inactive)
[28]
  GI50: > 100 µM (inactive)
[29]
  GI50: > 100 µM (inactive)
[30]
  GI50: > 100 µM (inactive)
[32]
  GI50: > 100 µM (inactive)
[33]
  GI50: > 100 µM (inactive)
[34]
  GI50: > 100 µM (inactive)
[36]
  GI50: > 100 µM (inactive)
[37]
  GI50: > 100 µM (inactive)
[38]
  GI50: > 100 µM (inactive)
[39]
  GI50: > 100 µM (inactive)
[40]
  GI50: > 100 µM (inactive)
[42]
  GI50: > 100 µM (inactive)
[43]
  GI50: > 100 µM (inactive)
[44]
  GI50: > 100 µM (inactive)
[45]
  GI50: > 100 µM (inactive)
[46]
  GI50: > 100 µM (inactive)
[47]
  GI50: > 100 µM (inactive)
[51]
  GI50: > 100 µM (inactive)
[52]
  GI50: > 100 µM (inactive)
[53]
  GI50: > 100 µM (inactive)
[54]
  GI50: > 100 µM (inactive)
[55]
  GI50: > 100 µM (inactive)
[57]
  GI50: > 100 µM (inactive)
[58]
  GI50: > 100 µM (inactive)
[59]
  GI50: > 100 µM (inactive)
[60]
  GI50: > 100 µM (inactive)
[62]
  GI50: > 100 µM (inactive)
[63]
  GI50: > 100 µM (inactive)
[64]
  GI50: > 100 µM (inactive)
[65]
  GI50: > 100 µM (inactive)
[66]
  GI50: > 100 µM (inactive)
[67]
  GI50: > 100 µM (inactive)
[68]
  GI50: > 100 µM (inactive)
[69]
  GI50: > 100 µM (inactive)

## C=C1COC(O)(C2OCOC(C3CC(=O)NC(=O)C3)C2O)C1C (stereo unspecified)
[1]
  GI50: 0.00895 µM (active)
[2]
  GI50: 0.00622 µM (active)
[3]
  GI50: 0.00565 µM (active)
[4]
  GI50: 0.00573 µM (active)
[5]
  GI50: 0.00478 µM
[6]
  GI50: 0.00221 µM (active)
[7]
  GI50: 0.00185 µM (active)
[8]
  GI50: 0.00278 µM (active)
[9]
  GI50: 0.00384 µM (active)
[10]
  GI50: 0.00233 µM (active)
[11]
  GI50: 0.0016 µM (active)
[12]
  GI50: 0.00222 µM (active)
[13]
  GI50: 0.000716 µM (active)
[14]
  GI50: 0.017 µM (active)
[15]
  GI50: 0.00404 µM (active)
[16]
  GI50: 0.00429 µM (active)
[17]
  GI50: 0.00512 µM (active)
[18]
  GI50: 0.00244 µM (active)
[19]
  GI50: 0.00105 µM (active)
[20]
  GI50: 0.00348 µM (active)
[21]
  GI50: 0.00361 µM (active)
[22]
  GI50: 0.00718 µM (active)
[23]
  GI50: 0.00213 µM (active)
[24]
  GI50: 0.00303 µM (active)
[25]
  GI50: 0.0043 µM (active)
[26]
  GI50: 0.00511 µM (active)
[27]
  GI50: < 0.0126 µM (active)
[28]
  GI50: 0.0037 µM (active)
[29]
  GI50: 0.00442 µM (active)
[30]
  GI50: 0.0011 µM (active)
[31]
  GI50: 0.00629 µM (active)
[32]
  GI50: 0.00319 µM (active)
[33]
  GI50: 0.00416 µM (active)
[34]
  GI50: < 0.01 µM (active)
[35]
  GI50: 0.0034 µM (active)
[36]
  GI50: 0.00316 µM (active)
[37]
  GI50: 0.00619 µM (active)
[38]
  GI50: 0.00342 µM (active)
[39]
  GI50: 0.00468 µM (active)
[40]
  GI50: 0.00357 µM (active)
[41]
  GI50: 0.00244 µM (active)
[42]
  GI50: 0.00381 µM (active)
[43]
  GI50: 0.00158 µM (active)
[44]
  GI50: 0.00305 µM (active)
[45]
  GI50: 0.00417 µM (active)
[46]
  GI50: 0.00106 µM (active)
[47]
  GI50: 0.00413 µM (active)
[48]
  GI50: 0.00333 µM (active)
[49]
  GI50: 0.00268 µM (active)
[50]
  GI50: 0.0031 µM (active)
[51]
  GI50: 0.00512 µM (active)
[52]
  GI50: 0.00689 µM (active)
[53]
  GI50: 0.00802 µM (active)
[54]
  GI50: 0.00278 µM (active)
[55]
  GI50: 0.00341 µM (active)
[56]
  GI50: 0.00847 µM (active)
[57]
  GI50: 0.00533 µM (active)
[58]
  GI50: 0.00494 µM (active)
[59]
  GI50: 0.00356 µM (active)
[60]
  GI50: 0.0018 µM (active)
[61]
  GI50: 0.00146 µM (active)
[62]
  GI50: 0.00156 µM (active)
[63]
  GI50: 0.00269 µM (active)
[64]
  GI50: 0.00221 µM (active)
[65]
  GI50: 0.00287 µM (active)
[66]
  GI50: 0.00562 µM (active)
[67]
  GI50: 0.00126 µM (active)
[68]
  GI50: 0.00281 µM (active)
[69]
  GI50: 0.00224 µM (active)

Reference: ChEMBL document CHEMBL1201862, “PubChem BioAssay data set” (2004)
